According to ChEMBL document CHEMBL3044826, “Design, synthesis and biological evaluation of some novel substituted 2-mercapto-3-phenethylquinazolines as antitumor agents” (2013):

Legend:
Assay type in all cases: functional
SK-MEL-28 = assay: Cytotoxicity against Homo sapiens (human) SK-MEL-28 cells assessed as growth inhibition at 10 uM after 48 hr by coulter counter analysis; conditions: SK-MEL-28, 48 h, read-out: GI
HCC 2998 = assay: Cytotoxicity against Homo sapiens (human) HCC2998 cells assessed as growth inhibition at 10 uM after 48 hr by coulter counter analysis; conditions: HCC 2998, 48 h, read-out: GI
MCF7 = assay: Cytotoxicity against Homo sapiens (human) MCF7 cells assessed as growth inhibition at 10 uM after 48 hr by coulter counter analysis; conditions: MCF7, 48 h, read-out: GI
HT-29 = assay: Cytotoxicity against Homo sapiens (human) HT-29 cells assessed as growth inhibition at 10 uM after 48 hr by coulter counter analysis; conditions: HT-29, 48 h, read-out: GI
PC-3 = assay: Cytotoxicity against Homo sapiens (human) PC3 cells assessed as growth inhibition at 10 uM after 48 hr by coulter counter analysis; conditions: PC-3, 48 h, read-out: GI
SN12C = assay: Cytotoxicity against Homo sapiens (human) SN12C cells assessed as growth inhibition at 10 uM after 48 hr by coulter counter analysis; conditions: read-out: GI
EKVX = assay: Cytotoxicity against Homo sapiens (human) EKVX cells assessed as growth inhibition at 10 uM after 48 hr by coulter counter analysis; conditions: read-out: GI
RXF 393 = assay: Cytotoxicity against Homo sapiens (human) RXF393 cells assessed as growth inhibition at 10 uM after 48 hr by coulter counter analysis; conditions: RXF 393, 48 h, read-out: GI
SK-MEL-5 = assay: Cytotoxicity against Homo sapiens (human) SK-MEL-5 cells assessed as growth inhibition at 10 uM after 48 hr by coulter counter analysis; conditions: SK-MEL-5, 48 h, read-out: GI
TK-10 = assay: Cytotoxicity against Homo sapiens (human) TK10 cells assessed as growth inhibition at 10 uM after 48 hr by coulter counter analysis; conditions: TK-10, 48 h, read-out: GI
A498 = assay: Cytotoxicity against Homo sapiens (human) A498 cells assessed as growth inhibition at 10 uM after 48 hr by coulter counter analysis; conditions: A498, 48 h, read-out: GI
OVCAR-8 = assay: Cytotoxicity against Homo sapiens (human) OVCAR8 cells assessed as growth inhibition at 10 uM after 48 hr by coulter counter analysis; conditions: OVCAR-8, 48 h, read-out: GI
CAKI-1 = assay: Cytotoxicity against Homo sapiens (human) Caki1 cells assessed as growth inhibition at 10 uM after 48 hr by coulter counter analysis; conditions: CAKI-1, 48 h, read-out: GI
U-251 = assay: Cytotoxicity against Homo sapiens (human) U251 cells assessed as growth inhibition at 10 uM after 48 hr by coulter counter analysis; conditions: U-251, 48 h, read-out: GI
KM12 = assay: Cytotoxicity against Homo sapiens (human) KM12 cells assessed as growth inhibition at 10 uM after 48 hr by coulter counter analysis; conditions: KM12, 48 h, read-out: GI
LOX IMVI = assay: Cytotoxicity against Homo sapiens (human) LOXIMVI cells assessed as growth inhibition at 10 uM after 48 hr by coulter counter analysis; conditions: read-out: GI
MDA-MB-468 = assay: Cytotoxicity against Homo sapiens (human) MDA-MB-468 cells assessed as growth inhibition at 10 uM after 48 hr by coulter counter analysis; conditions: MDA-MB-468, 48 h, read-out: GI
NCI-H322M = assay: Cytotoxicity against Homo sapiens (human) NCI-H322M cells assessed as growth inhibition at 10 uM after 48 hr by coulter counter analysis; conditions: read-out: GI
OVCAR-5 = assay: Cytotoxicity against Homo sapiens (human) OVCAR5 cells assessed as growth inhibition at 10 uM after 48 hr by coulter counter analysis; conditions: OVCAR-5, 48 h, read-out: GI
SNB-75 = assay: Cytotoxicity against Homo sapiens (human) SNB75 cells assessed as growth inhibition at 10 uM after 48 hr by coulter counter analysis; conditions: SNB-75, 48 h, read-out: GI
OVCAR-4 = assay: Cytotoxicity against Homo sapiens (human) OVCAR4 cells assessed as growth inhibition at 10 uM after 48 hr by coulter counter analysis; conditions: OVCAR-4, 48 h, read-out: GI
HCT-15 = assay: Cytotoxicity against Homo sapiens (human) HCT15 cells assessed as growth inhibition at 10 uM after 48 hr by coulter counter analysis; conditions: HCT-15, 48 h, read-out: GI
OVCAR-3 = assay: Cytotoxicity against Homo sapiens (human) OVCAR3 cells assessed as growth inhibition at 10 uM after 48 hr by coulter counter analysis; conditions: OVCAR-3, 48 h, read-out: GI
DU-145 = assay: Cytotoxicity against Homo sapiens (human) DU145 cells assessed as growth inhibition at 10 uM after 48 hr by coulter counter analysis; conditions: DU-145, 48 h, read-out: GI
M14 = assay: Cytotoxicity against Homo sapiens (human) M14 cells assessed as growth inhibition at 10 uM after 48 hr by coulter counter analysis; conditions: M14, 48 h, read-out: GI
UO-31 = assay: Cytotoxicity against Homo sapiens (human) UO31 cells assessed as growth inhibition at 10 uM after 48 hr by coulter counter analysis; conditions: UO-31, 48 h, read-out: GI
NCI-H23 = assay: Cytotoxicity against Homo sapiens (human) NCI-H23 cells assessed as growth inhibition at 10 uM after 48 hr by coulter counter analysis; conditions: NCI-H23, 48 h, read-out: GI
A549 = assay: Cytotoxicity against Homo sapiens (human) A549 cells assessed as growth inhibition at 10 uM after 48 hr by coulter counter analysis; conditions: A549, 48 h, read-out: GI
UACC-62 = assay: Cytotoxicity against Homo sapiens (human) UACC62 cells assessed as growth inhibition at 10 uM after 48 hr by coulter counter analysis; conditions: UACC-62, 48 h, read-out: GI
ACHN = assay: Cytotoxicity against Homo sapiens (human) ACHN cells assessed as growth inhibition at 10 uM after 48 hr by coulter counter analysis; conditions: read-out: GI
SF-539 = assay: Cytotoxicity against Homo sapiens (human) SF539 cells assessed as growth inhibition at 10 uM after 48 hr by coulter counter analysis; conditions: SF-539, 48 h, read-out: GI
SF-268 = assay: Cytotoxicity against Homo sapiens (human) SF268 cells assessed as growth inhibition at 10 uM after 48 hr by coulter counter analysis; conditions: SF-268, 48 h, read-out: GI
COLO 205 = assay: Cytotoxicity against Homo sapiens (human) COLO205 cells assessed as growth inhibition at 10 uM after 48 hr by coulter counter analysis; conditions: COLO 205, 48 h, read-out: GI
[1] = Cytotoxicity against Homo sapiens (human) NCI-ADR-RES cells assessed as growth inhibition at 10 uM after 48 hr by coulter counter analysis; conditions: read-out: GI

O=C1c2ccccc2C(=O)N1CCCSc1nc2ccccc2c(=O)n1CCc1ccccc1
inhibition of growth at 10 µM (SK-MEL-28): < 10%
inhibition of growth at 10 µM (HCC 2998): < 10%
inhibition of growth at 10 µM (MCF7): < 10%
inhibition of growth at 10 µM (HT-29): 13%
inhibition of growth at 10 µM (PC-3): 51%
inhibition of growth at 10 µM (SN12C): < 10%
inhibition of growth at 10 µM (EKVX): 16%
inhibition of growth at 10 µM (RXF 393): < 10%
inhibition of growth at 10 µM (SK-MEL-5): 43%
inhibition of growth at 10 µM (TK-10): < 10%
inhibition of growth at 10 µM (A498): 20%
inhibition of growth at 10 µM (OVCAR-8): < 10%
inhibition of growth at 10 µM (CAKI-1): 34%
inhibition of growth at 10 µM (U-251): 15%
inhibition of growth at 10 µM (KM12): < 10%
inhibition of growth at 10 µM (LOX IMVI): < 10%
inhibition of growth at 10 µM (MDA-MB-468): < 10%
inhibition of growth at 10 µM (NCI-H322M): < 10%
inhibition of growth at 10 µM (OVCAR-5): < 10%
inhibition of growth at 10 µM (SNB-75): < 10%
inhibition of growth at 10 µM (OVCAR-4): < 10%
inhibition of growth at 10 µM (HCT-15): 31%
inhibition of growth at 10 µM (OVCAR-3): < 10%
inhibition of growth at 10 µM (DU-145): < 10%
inhibition of growth at 10 µM (M14): < 10%
inhibition of growth at 10 µM (UO-31): 19%
inhibition of growth at 10 µM (NCI-H23): < 10%
inhibition of growth at 10 µM (A549): 18%
inhibition of growth at 10 µM (UACC-62): 26%
inhibition of growth at 10 µM (ACHN): < 10%
inhibition of growth at 10 µM (SF-539): < 10%
inhibition of growth at 10 µM (SF-268): < 10%
inhibition of growth at 10 µM (COLO 205): < 10%
inhibition of growth at 10 µM [1]: < 10%

COc1ccc(-n2c(S)nnc2CSc2nc3ccccc3c(=O)n2CCc2ccccc2)cc1
inhibition of growth at 10 µM (SK-MEL-28): < 10%
inhibition of growth at 10 µM (HCC 2998): < 10%
inhibition of growth at 10 µM (MCF7): 28%
inhibition of growth at 10 µM (HT-29): < 10%
inhibition of growth at 10 µM (PC-3): 30%
inhibition of growth at 10 µM (SN12C): < 10%
inhibition of growth at 10 µM (EKVX): 31%
inhibition of growth at 10 µM (RXF 393): < 10%
inhibition of growth at 10 µM (SK-MEL-5): 24%
inhibition of growth at 10 µM (TK-10): < 10%
inhibition of growth at 10 µM (A498): 51%
inhibition of growth at 10 µM (OVCAR-8): < 10%
inhibition of growth at 10 µM (CAKI-1): 17%
inhibition of growth at 10 µM (U-251): 11%
inhibition of growth at 10 µM (KM12): < 10%
inhibition of growth at 10 µM (LOX IMVI): < 10%
inhibition of growth at 10 µM (MDA-MB-468): 38%
inhibition of growth at 10 µM (NCI-H322M): < 10%
inhibition of growth at 10 µM (OVCAR-5): < 10%
inhibition of growth at 10 µM (SNB-75): < 10%
inhibition of growth at 10 µM (OVCAR-4): < 10%
inhibition of growth at 10 µM (HCT-15): 25%
inhibition of growth at 10 µM (OVCAR-3): < 10%
inhibition of growth at 10 µM (DU-145): < 10%
inhibition of growth at 10 µM (M14): < 10%
inhibition of growth at 10 µM (UO-31): 30%
inhibition of growth at 10 µM (NCI-H23): < 10%
inhibition of growth at 10 µM (A549): < 10%
inhibition of growth at 10 µM (UACC-62): 19%
inhibition of growth at 10 µM (ACHN): < 10%
inhibition of growth at 10 µM (SF-539): < 10%
inhibition of growth at 10 µM (SF-268): < 10%
inhibition of growth at 10 µM (COLO 205): < 10%
inhibition of growth at 10 µM [1]: < 10%

CSc1nc2ccccc2c(=O)n1CCc1ccccc1
inhibition of growth at 10 µM (SK-MEL-28): < 10%
inhibition of growth at 10 µM (HCC 2998): < 10%
inhibition of growth at 10 µM (MCF7): 34%
inhibition of growth at 10 µM (HT-29): < 10%
inhibition of growth at 10 µM (PC-3): 33%
inhibition of growth at 10 µM (SN12C): < 10%
inhibition of growth at 10 µM (EKVX): 29%
inhibition of growth at 10 µM (RXF 393): 30%
inhibition of growth at 10 µM (SK-MEL-5): 19%
inhibition of growth at 10 µM (TK-10): < 10%
inhibition of growth at 10 µM (A498): 18%
inhibition of growth at 10 µM (OVCAR-8): < 10%
inhibition of growth at 10 µM (CAKI-1): < 10%
inhibition of growth at 10 µM (U-251): 12%
inhibition of growth at 10 µM (KM12): 28%
inhibition of growth at 10 µM (LOX IMVI): 11%
inhibition of growth at 10 µM (MDA-MB-468): 84%
inhibition of growth at 10 µM (NCI-H322M): < 10%
inhibition of growth at 10 µM (OVCAR-5): < 10%
inhibition of growth at 10 µM (SNB-75): < 10%
inhibition of growth at 10 µM (OVCAR-4): 21%
inhibition of growth at 10 µM (HCT-15): 39%
inhibition of growth at 10 µM (OVCAR-3): < 10%
inhibition of growth at 10 µM (DU-145): < 10%
inhibition of growth at 10 µM (M14): < 10%
inhibition of growth at 10 µM (UO-31): 37%
inhibition of growth at 10 µM (NCI-H23): 16%
inhibition of growth at 10 µM (A549): 12%
inhibition of growth at 10 µM (UACC-62): 12%
inhibition of growth at 10 µM (ACHN): 34%
inhibition of growth at 10 µM (SF-539): < 10%
inhibition of growth at 10 µM (SF-268): < 10%
inhibition of growth at 10 µM (COLO 205): 19%
inhibition of growth at 10 µM [1]: 18%
